Measurements reported in the supplement of paper PMC10307832.

Assays:
Assay in all cases: relative viability (nuclei count vs DMSO), 5 days (fraction); higher = more cells survive
Tivantinib + Tozasertib = compound: O=C1NC(=O)[C@@H](c2cn3c4c(cccc24)CCC3)[C@@H]1c1c[nH]c2ccccc12 [Tivantinib] + Cc1cc(Nc2cc(N3CCN(C)CC3)nc(Sc3ccc(NC(=O)C4CC4)cc3)n2)n[nH]1 [Tozasertib] (partner 0.1 µM)
Procedure, shortened: (§1)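 Lung cancer cell lines were seeded in 1536-well plates and dosed by pin tool the next day, with either a single drug or a fixed anchor-drug dose combined with five library-drug doses (not always all listed) spaced in √10 steps. Five days later, one step fixed the cells and stained their nuclei (final 0.05% Triton X-100, 1% formaldehyde, 1 ug/ml Hoechst), and nuclei were counted on 4× images. Relative viability is the nuclei count in treated wells divided by the count in vehicle wells, and each value is the median of duplicate plates.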

Crenolanib + Crizotinib = compound: CC1(COc2ccc3c(c2)ncn3-c2ccc3cccc(N4CCC(N)CC4)c3n2)COC1 [Crenolanib] + C[C@@H](Oc1cc(-c2cnn(C3CCNCC3)c2)cnc1N)c1c(Cl)ccc(F)c1Cl [Crizotinib] (partner 1 µM)
Procedure, shortened: as §1

Tivantinib + Vorinostat = compound: O=C1NC(=O)[C@@H](c2cn3c4c(cccc24)CCC3)[C@@H]1c1c[nH]c2ccccc12 [Tivantinib] + O=C(CCCCCCC(=O)Nc1ccccc1)NO [Vorinostat] (partner 1 µM)
Procedure, shortened: as §1

Crenolanib + Decitabine = compound: CC1(COc2ccc3c(c2)ncn3-c2ccc3cccc(N4CCC(N)CC4)c3n2)COC1 [Crenolanib] + Nc1ncn([C@H]2C[C@H](O)[C@@H](CO)O2)c(=O)n1 [Decitabine] (partner 2 µM)
Procedure, shortened: as §1

Cell Line | relative viability (Tivantinib + Tozasertib; first compound 0.01 µM) | relative viability (Tivantinib + Tozasertib; first compound 0.03162 µM) | relative viability (Tivantinib + Tozasertib; first compound 0.1 µM) | relative viability (Tivantinib + Tozasertib; first compound 0.3162 µM) | relative viability (Crenolanib + Crizotinib; first compound 0.01 µM) | relative viability (Crenolanib + Crizotinib; first compound 0.03162 µM) | relative viability (Crenolanib + Crizotinib; first compound 0.1 µM) | relative viability (Crenolanib + Crizotinib; first compound 0.3162 µM) | relative viability (Crenolanib + Crizotinib; first compound 1 µM) | relative viability (Tivantinib + Vorinostat; first compound 0.01 µM) | relative viability (Tivantinib + Vorinostat; first compound 0.03162 µM) | relative viability (Tivantinib + Vorinostat; first compound 0.1 µM) | relative viability (Tivantinib + Vorinostat; first compound 0.3162 µM) | relative viability (Crenolanib + Decitabine; first compound 0.01 µM) | relative viability (Crenolanib + Decitabine; first compound 0.03162 µM) | relative viability (Crenolanib + Decitabine; first compound 0.1 µM) | relative viability (Crenolanib + Decitabine; first compound 0.3162 µM) | relative viability (Crenolanib + Decitabine; first compound 1 µM)
SW 1573 | 0.23 | 0.262 | 0.177 | 0.127 | 0.748 | 0.886 | 0.795 | 0.834 | 0.884 | 1.04 | 0.53 | 0.75 | 0.67 | 0.333 | 0.591 | 0.518 | 0.648 | 0.52
ChaGo-K-1 | 0.205 | 0.219 | 0.218 | 0.218 | 1.16 | 1.17 | 1.17 | 1.06 | 1.09 | 0.76 | 0.704 | 0.704 | 0.717 | 0.56 | 0.489 | 0.533 | 0.513 | 0.556
COR-L 105 | 0.32 | 0.414 | 0.397 | 0.383 | 0.845 | 0.604 | 0.731 | 0.838 | 0.73 | 0.89 | 0.786 | 0.722 | 0.771 | 0.684 | 0.669 | 0.698 | 0.682 | 0.675
NCI-H1993 | 0.541 | 0.595 | 0.543 | 0.51 | 0.875 | 0.871 | 0.875 | 0.806 | 0.9 | 0.84 | 0.704 | 0.728 | 0.66 | 0.578 | 0.629 | 0.615 | 0.62 | 0.651
NCI-H2009 | 0.734 | 0.696 | 0.755 | 0.651 | 1.07 | 1.01 | 1.01 | 1.06 | 0.815 | 0.735 | 0.672 | 0.746 | 0.715 | 0.395 | 0.367 | 0.367 | 0.364 | 0.416
SK-LU-1 | 0.331 | 0.357 | 0.312 | 0.323 | 1 | 0.968 | 0.644 | 0.876 | 0.85 | 0.742 | 0.764 | 0.65 | 0.836 | 0.666 | 0.703 | 0.533 | 0.66 | 0.653
NCI-H2347 | 0.71 | 0.6 | 0.53 | 0.624 | 0.934 | 0.624 | 0.506 | 0.59 | 0.72 | 0.622 | 0.436 | 0.518 | 0.498 | 0.657 | 0.611 | 0.605 | 0.674 | 0.6
HCC-44 | 0.968 | 0.712 | 0.887 | 0.275 | 0.823 | 0.84 | 0.739 | 0.881 | 0.848 | 1.09 | 1.07 | 1.1 | 1.07 | 0.933 | 0.925 | 0.944 | 0.972 | 0.845
EMC-BAC-2 | 0.276 | 0.271 | 0.136 | 0.261 | 0.757 | 0.774 | 0.795 | 0.791 | 0.775 | 0.532 | 0.522 | 0.496 | 0.582 | 1.07 |  | 0.957 | 1.11 | 0.963
NCI-H3122 | 0.409 | 0.36 | 0.508 | 0.146 | 0.27 | 0.288 | 0.298 | 0.267 | 0.321 | 1.09 | 0.943 | 0.947 | 1.11 | 0.433 | 0.424 | 0.468 | 0.546 | 0.478
NCI-H358 | 0.109 | 0.0982 | 0.0902 | 0.0802 | 0.701 | 0.584 | 0.592 | 0.454 | 0.661 | 0.704 | 0.567 | 0.658 | 0.233 | 0.17 | 0.194 | 0.233 | 0.21 | 0.188
NCI-H1944 | 0.257 | 0.232 | 0.264 | 0.204 | 1.05 | 1.19 | 1.03 | 1.21 | 1.07 | 0.565 | 0.448 | 0.501 | 0.492 | 0.474 | 0.441 | 0.423 | 0.468 | 0.458
H3255 | 0.62 | 0.594 | 0.535 |  | 1.07 | 0.806 | 0.889 | 0.85 | 0.825 |  | 0.843 | 0.753 | 0.295 | 0.674 | 0.629 | 0.588 | 0.587 | 0.652
NCI-H1975 | 0.773 | 0.744 | 0.645 | 0.714 | 1 | 1.15 | 0.978 | 1.03 | 0.892 | 0.752 | 0.754 | 0.685 | 0.77 | 0.376 | 0.475 | 0.412 | 0.375 | 0.349
NCI-H647 | 0.38 | 0.265 | 0.306 | 0.137 | 1.07 | 1.03 | 1.03 | 1.01 | 1.03 | 0.541 | 0.598 | 0.579 | 0.962 | 0.376 | 0.401 | 0.362 | 0.502 | 0.346
NCI-H441 | 0.587 | 0.655 | 0.552 | 0.474 | 0.684 | 0.738 | 0.56 | 0.772 | 0.846 | 0.844 | 0.762 | 0.563 | 0.708 | 0.259 | 0.276 | 0.277 | 0.251 | 0.243
NCI-H1355 | 0.561 | 0.488 | 0.541 | 0.489 | 1.15 | 1.07 | 0.973 | 1.06 | 0.894 | 0.611 | 0.571 | 0.675 | 0.61 | 0.374 | 0.335 | 0.303 | 0.407 | 0.328
NCI-H23 | 0.447 | 0.359 | 0.423 | 0.308 | 0.689 | 0.476 | 0.615 | 0.441 | 0.575 | 0.679 | 0.527 | 0.624 | 0.671 | 0.288 | 0.359 | 0.347 | 0.353 | 0.321
